This passage reports Ki, inhibition and Activity results from ChEMBL document CHEMBL5154892, “Structure-Based Optimization and Characterization of Macrocyclic Zika Virus NS2B-NS3 Protease Inhibitors” (J Med Chem, 2022).

Active and inactive are the calls of the source. The rule behind the calls is not given here. *1 amine or outer side, *2 acyl side, *3 side chain or, on linkers, in order; H or OH if unused. Where a SMILES comes first, the peptide text is derived from it. [ ]: non-standard residue; d: D form. X2 = N=C(N)N[C@H](CCOCN[*:1])C(=O)[*:2]; X3 = O=C([C@@H](CN[*:1])Cc1ccccc1)[*:2]; X1 = O=C([C@H](CN[*:1])Cc1ccccc1)[*:2]; NMeβAla = CN(CCC(=O)[*:2])[*:1]; βAla = NCCC(=O)O; Sar = CNCC(=O)O

Data set [1] in a line: Binding affinity to Zika virus NS2B-NS3 protease using Phac-Leu-Lys-Lys-Arg-AMC as substrate measured immediately upto 10 mins by fluorogenic assay.
Data set [2] can be described thus: Binding affinity to West Nile virus NSB2 (52 to 96 amino acids)-NS3 (1 to 184 amino acids) protease using Phac-Leu-Lys-Lys-Arg-AMC as substrate measured immediately upto 10 mins by fluorogenic assay.
The target of the next data set is Prothrombin (Bos taurus) (UniProt P00735). The data set can be described thus: Inhibition of bovine thrombin at 100 uM using Tos-Gly-Pro-Arg-AMC as substrate by fluorescence plate reader analysis.
The next data set deals with Trypsin (Sus scrofa) (UniProt P00761). Description: Inhibition of porcine trypsin at 100 uM using Mes-D-Arg-Gly-Arg-AMC a substrate by fluorescence plate reader analysis.
The test system of data set [3] is A549. Description: Cytotoxicity against human A549 cells assessed as cell viability upto 80 uM and measured after 24 to 48 hrs by PrestoBlue dye based microplate reader analysis. In kind it is toxicity. The following applies: a549, 80 µM, time 24-48 hrs.
The subject of data set [4] is Zika virus. The data set can be described thus: Antiviral activity against ZIKV H/PF/2013 infected in human A549 cells assessed as reduction in intracellular virus titer at 80 uM measured after 48 hrs post infection by plaque assay based crystal violet staining analysis. Type of data set: functional, organism-based.
The test system of data set [5] is Zika virus. Description: Antiviral activity against ZIKV H/PF/2013 infected in human A549 cells assessed as reduction in number of infected cells at 80 uM measured after 24 hrs post infection by immunofluorescence microscopic analysis relative to control. Type of data set: functional, organism-based.
In data set [6] the test system is Zika virus. Description: Antiviral activity against Zika virus infected in human A549 cells assessed as reduction in luciferase activity at 20 uM measured up to 48 hrs post infection by luciferase assay. Type of data set: functional, organism-based.
In data set [7] the test system is Zika virus. The data set can be described thus: Antiviral activity against ZIKV H/PF/2013 infected in human A549 cells assessed as reduction in extracellular virus titer in cell supernatant at 80 uM measured after 48 hrs post infection by plaque assay based crystal violet staining analysis. In kind it is functional, organism-based.
Data set [8] concerns Zika virus. The data set can be described thus: Antiviral activity against ZIKV H/PF/2013 infected in human A549 cells assessed as reduction in extracellular virus titer in cell supernatant at 80 uM measured after 24 hrs post infection by plaque assay based crystal violet staining analysis. In kind it is functional, organism-based.
Data set [9] relates to A549. Description: Cytotoxicity against human A549 cells assessed as cell viability at 2.5 to 160 uM measured after 24 to 48 hrs by PrestoBlue dye based microplate reader analysis. In kind it is toxicity. The conditions noted are these: a549, 160 µM, dose lower 2.5 µM, time lower 24 hrs, dose upper 160 µM, time upper 48 hrs.

Sequence of Trypsin (Sus scrofa) (P00761 whole entry): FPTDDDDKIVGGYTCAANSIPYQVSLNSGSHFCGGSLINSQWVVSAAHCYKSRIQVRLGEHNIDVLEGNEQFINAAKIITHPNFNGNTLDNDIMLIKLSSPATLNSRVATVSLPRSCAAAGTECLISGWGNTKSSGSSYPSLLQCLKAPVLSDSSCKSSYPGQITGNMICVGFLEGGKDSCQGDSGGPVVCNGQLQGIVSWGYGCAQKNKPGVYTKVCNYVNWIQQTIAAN

In general, Ki refers to the dissociation constant of the complex between target and ligand, obtained from inhibition or displacement. Higher therefore signals lower affinity. For the compound `N=C(N)N[C@@H]1CCOCNC(=O)[C@H](CCCCN)NC(=O)[C@H](CCCCN)NC(=O)Cc2cccc(c2)CNC(=O)[C@@H](Cc2ccccc2)NC1=O`, the figures for the Ki in data set [1] and in data set [2] were 5.34 nM and 693 nM, respectively.
The like results for `N=C(N)N[C@@H]1CCOCNC(=O)[C@H](CCCCN)NC(=O)[C@H](CCCCN)NC(=O)CCNC(=O)Cc2cccc(c2)CNC1=O` were, in that order, 81.4 nM and 56500 nM.
One may read the inhibition as how much of the control response was suppressed. Low values mean little suppression, high ones strong suppression. In the case of `N=C(N)N[C@@H]1CCOCNC(=O)[C@H](CCCCN)NC(=O)[C@H](CCCCN)NC(=O)[C@@H](Cc2ccccc2)CNC(=O)CNC(=O)CNC1=O` (cyclo(GG[X1]KK[X2])), the Ki in [1] turned out to be 63 nM; in data set [2] it was 14800 nM. In addition, the inhibition against Prothrombin (Bos taurus) is below 30%; against Trypsin (Sus scrofa), below 10%.
The corresponding values for `N=C(N)N[C@@H]1CCOCNC(=O)[C@H](CCCCN)NC(=O)[C@H](CCCCN)NC(=O)[C@@H](CC2CCCCC2)NC(=O)CCNC(=O)CNC1=O` are 6.94 nM, 735 nM, below 30% and below 10%.
For `N=C(N)N[C@@H]1CCOCNC(=O)[C@H](CCCCN)NC(=O)[C@H](CCCCN)NC(=O)[C@H]2CCCN2C(=O)CCNC(=O)CNC1=O`, the inhibitory constant (Ki) in data set [1] is 21 nM; in [2], 2590 nM.
Consider `CCCC[C@H]1NC(=O)CCNC(=O)CNC(=O)[C@H](NC(=N)N)CCOCNC(=O)[C@H](CCCCN)NC(=O)[C@H](CCCCN)NC1=O`, for which the Ki in data set [1] amounted to 4.94 nM; in data set [2] it was 892 nM.
`N=C(N)N[C@@H]1CCOCNC(=O)[C@H](CCCCN)NC(=O)[C@H](CCCCN)NC(=O)Cc2cccc(c2)CNC(=O)[C@@H](CCC2CCCCC2)NC1=O.O=C(O)C(F)(F)F`: the Ki amounted to 2.33 nM in data set [1] and 219 nM in [2]. The Activity entry with A549 [3] is on record as “Non-Toxic”. In addition, the result with Zika virus [4], in the data set with Zika virus [5], with Zika virus [6], in the data set on Zika virus [7] and in the data set with Zika virus [8] was Active. The inhibition at Prothrombin (Bos taurus) was below 30%; on Trypsin (Sus scrofa), below 10%.
Consider `CN1CC(=O)NCCC(=O)N[C@@H](CCCCN)C(=O)N[C@@H](CCCCN)C(=O)NCOCC[C@@H](NC(=N)N)C(=O)NCC1=O` (cyclo(G[Sar][βAla]KK[X2])), for which the inhibition constant Ki in data set [1] was found to be 333 nM; in data set [2], 30700 nM.
Regarding `CC(C)[C@H]1NC(=O)CCNC(=O)CNC(=O)[C@H](NC(=N)N)CCOCNC(=O)[C@H](CCCCN)NC(=O)[C@H](CCCCN)NC1=O.O=C(O)C(F)(F)F`, the Ki was 8.26 nM in data set [1] and 1680 nM in data set [2]. Also, in the data set with A549 [3], the Activity entry was “Non-Toxic”.
Take `CC(C)[C@@H]1NC(=O)CCNC(=O)CNC(=O)[C@H](NC(=N)N)CCOCNC(=O)[C@H](CCCCN)NC(=O)[C@H](CCCCN)NC1=O`: the Ki in data set [1] came to 340 nM; in [2], 39700 nM.
Consider `N=C(N)N[C@@H]1CCOCNC(=O)[C@H](CCCCN)NC(=O)[C@H](CCCCN)NC(=O)CNC(=O)Cc2cccc(c2)CNC1=O`, for which the Ki worked out at 41.2 nM in data set [1] and 1760 nM in data set [2].
Turning to `CC(C)C[C@H]1NC(=O)[C@H](NC(=N)N)CCOCNC(=O)[C@H](CCCCN)NC(=O)[C@H](CCCCN)NC(=O)Cc2cccc(c2)CNC1=O`, the Ki in data set [1] worked out at 9.53 nM; in data set [2], 276 nM. The inhibition was below 30% against Prothrombin (Bos taurus) and below 10% against Trypsin (Sus scrofa).
Take `CC(C)C[C@H]1NC(=O)CCNC(=O)CNC(=O)[C@H](NC(=N)N)CCOCNC(=O)[C@H](CCCCN)NC(=O)[C@H](CCCCN)NC1=O`: the Ki in data set [1] amounted to 4.3 nM; in data set [2] it was 1030 nM.
Turning to `C[C@@H]1NC(=O)CNC(=O)CNC(=O)[C@H](NC(=N)N)CCOCNC(=O)[C@H](CCCCN)NC(=O)[C@H](CCCCN)NC1=O`, the results for the Ki in [1] and in data set [2] were 92.2 nM and 1170 nM, respectively.
Take `CN1CCC(=O)N[C@@H](CCCCN)C(=O)N[C@@H](CCCCN)C(=O)NCOCC[C@@H](NC(=N)N)C(=O)NCC(=O)NCC1=O` (cyclo(GG[NMeβAla]KK[X2])): the Ki in [1] worked out at 490 nM; in [2], 36900 nM.
For the compound `N=C(N)N[C@@H]1CCOCNC(=O)[C@H](CCCCN)NC(=O)[C@H](CCCCN)NC(=O)[C@@H](CCc2ccccc2)NC(=O)CCNC(=O)CNC1=O`, the Ki in data set [1] was found to be 10.3 nM; in data set [2], 1290 nM.
Regarding `N=C(N)N[C@@H]1CCOCNC(=O)[C@H](CCCCN)NC(=O)[C@H](CCCCN)NC(=O)CCNC(=O)CNC(=O)CNC1=O` (cyclo(GG[βAla]KK[X2])), the Activity entry in the data set with A549 [3] is listed as “Non-Toxic”. Moreover, in the data set with Zika virus [6], the outcome was Active. In addition, the figures for the inhibition at Prothrombin (Bos taurus) and on Trypsin (Sus scrofa) were below 30% and below 10%, respectively.
As for `CC(C)[C@H]1NC(=O)[C@H](NC(=N)N)CCOCNC(=O)[C@H](CCCCN)NC(=O)[C@H](CCCCN)NC(=O)Cc2cccc(c2)CNC1=O`, the figures for the Ki in data set [1] and in data set [2] were 7.74 nM and 439 nM, respectively.
For the compound `N=C(N)N[C@@H]1CCOCNC(=O)[C@H](CCCCN)NC(=O)[C@H](CCCCN)NC(=O)Cc2cccc(c2)CNC(=O)[C@@H](CC2CCCCC2)NC1=O`, the Ki was determined as 3.59 nM in data set [1] and 395 nM in data set [2]. Besides, the inhibition at Prothrombin (Bos taurus) was below 30%; at Trypsin (Sus scrofa) it was below 10%.
`C[C@H]1NC(=O)CCNC(=O)CNC(=O)[C@H](NC(=N)N)CCOCNC(=O)[C@H](CCCCN)NC(=O)[C@H](CCCCN)NC1=O`: the Ki in data set [1] came out at 5.62 nM; in data set [2] it was 1430 nM.
Turning to `N=C(N)N[C@@H]1CCOCNC(=O)[C@H](CCCCN)NC(=O)[C@H](CCCCN)NC(=O)[C@@H](Cc2ccccc2)NC(=O)CNC(=O)CNC1=O` (racemic), the figures for the Ki in [1] and in [2] were 139 nM and 17300 nM, respectively.
Turning to `CC(C)C[C@@H]1NC(=O)CCNC(=O)CNC(=O)[C@H](NC(=N)N)CCOCNC(=O)[C@H](CCCCN)NC(=O)[C@H](CCCCN)NC1=O`, the Ki in data set [1] is 124 nM; in [2], 10300 nM.
Turning to `N=C(N)N[C@@H]1CCOCNC(=O)[C@H](CCCCN)NC(=O)[C@H](CCCCN)NC(=O)[C@@H](c2ccccc2)NC(=O)CCNC(=O)CNC1=O`, the Ki in [1] amounted to 4.84 nM; in data set [2], 371 nM. For the same compound, the inhibition was 55% against Prothrombin (Bos taurus) and 33% against Trypsin (Sus scrofa).
On to `N=C(N)N[C@@H]1CCOCNC(=O)[C@H](CCCCN)NC(=O)[C@H](CCCCN)NC(=O)[C@H](Cc2ccccc2)CNC(=O)CNC(=O)CNC1=O` (cyclo(GG[X3]KK[X2])), for which the Ki in [1] came out at 86 nM; in data set [2], 6490 nM.
Turning to `N=C(N)N[C@@H]1CCOCNC(=O)[C@H](CCCCN)NC(=O)[C@H](CCCCN)NC(=O)[C@@H](Cc2ccccc2)NC(=O)CCNC(=O)CNC1=O.O=C(O)C(F)(F)F`, the Activity result in the data set on A549 [9] is “Toxic”. For the same compound, the Ki is 3.06 nM in data set [1] and 1920 nM in [2]. In the data set with Zika virus [6], the outcome was Active. For the same compound, the inhibition against Prothrombin (Bos taurus) is below 30%; against Trypsin (Sus scrofa) it was below 10%.
In the case of `N=C(N)N[C@@H]1CCOCNC(=O)[C@H](CCCCN)NC(=O)[C@H](CCCCN)NC(=O)Cc2cccc(c2)CNC(=O)CNC1=O`, the Activity entry in the data set on A549 [3] is listed as “Non-Toxic”. Also, the outcome with Zika virus [6] and in the data set on Zika virus [8] was Active. Also, the inhibition is below 30% against Prothrombin (Bos taurus) and below 10% at Trypsin (Sus scrofa).
As for `C[C@@H]1NC(=O)CCNC(=O)CNC(=O)[C@H](NC(=N)N)CCOCNC(=O)[C@H](CCCCN)NC(=O)[C@H](CCCCN)NC1=O`, the figures for the Ki in data set [1] and in data set [2] were 75 nM and 7760 nM, respectively.
The like results for `CN1CC(=O)NCC(=O)NCCC(=O)N[C@@H](CCCCN)C(=O)N[C@@H](CCCCN)C(=O)NCOCC[C@@H](NC(=N)N)C1=O` (cyclo(G[βAla]KK[X2][Sar])) were, in that order, 332 nM and 30500 nM.
On to `N=C(N)N[C@@H]1CCOCNC(=O)[C@H](CCCCN)NC(=O)[C@H](CCCCN)NC(=O)Cc2cccc(c2)CNC(=O)[C@@H](CCc2ccccc2)NC1=O`, for which the results for the Ki in data set [1] and in data set [2] were 6.02 nM and 331 nM, respectively.
For `N=C(N)N[C@@H]1CCOCNC(=O)[C@H](CCCCN)NC(=O)[C@H](CCCCN)NC(=O)[C@H](Cc2ccccc2)NC(=O)CNC(=O)CNC1=O`, the results for the inhibition constant (Ki) in data set [1] and in data set [2] were 31.9 nM and 657 nM, respectively.
The corresponding values for `C[C@H]1NC(=O)CNC(=O)CNC(=O)[C@H](NC(=N)N)CCOCNC(=O)[C@H](CCCCN)NC(=O)[C@H](CCCCN)NC1=O` are 187 nM and 6970 nM.
